How the values were obtained:
Type in all cases: in vitro ADME
pepsin [1] = molecular target: T1, pepsin (Sus scrofa, UniProt P00791); experiment: Protection of semaglutide compared to Rybelsus under gastric conditions reproduced in vitro, with pepsin (Example 4, HPLC); conditions: buffered solution; simulated gastric medium pH 1.2 with pepsin (3.2 mg/mL); 0.05 mg/ml of semaglutide; T = 2 h; 37° C.
Procedure: (§1) The gastro-resistance tests with semaglutide were carried out at a concentration of 0.05 mg/mL (5 mg of semaglutide in final 100 mL). The simulated gastric medium was prepared following the same protocol as that described in Example 3.
(§2) The product Rybelsus® comprises Semaglutide, Sodium Salcaprozate (SNAC), Povidone, Microcrystalline Cellulose, and Magnesium Stearate. • Step 1) A 14 mg Rybelsus® tablet was used for the comparative tests and was dissolved in 50 mL of drinking water for thirty minutes with stirring. The final semaglutide concentration was 0.28 mg/mL. • Step 2) An effervescent tablet (according to Example 1A) was added or not to the solution obtained in step 1. After cessation of effervescence, 50 ml of 0.2 N HCL at pH 1.2 were added to obtain a final solution of 100 ml of 0.1 N HCL, which corresponds to the simulated gastric environment. The final concentration of semaglutide is 14 mg per 100 mL. • Step 3) The pepsin was then added or not to the solution obtained in step 2, at the conventional dose of 3.2 mg/ml. The test was carried out for 2 hours at a temperature of 37° C.
The semaglutide content was specifically assayed by high performance liquid chromatography (HPLC). The residual content was calculated by measuring the semaglutide content at time t relative to the initial semaglutide content. The result is a ratio expressed in percent (%). […]

[2] = Stability of semaglutide in simulated gastric medium at pH 1.2 without pepsin (Example 2, UHPLC-UV); conditions: for Semaglutide residual content (%): simulated gastric medium at pH 1.2 without pepsin, 0.05 mg/ml semaglutide, 37° C.
Procedure: (§3) The purpose of this test is to show the gastric stability of semaglutide in a composition according to the invention. • Step 1) The tablet obtained in Example 1A was dissolved in 50 mL of drinking water in order to obtain a buffered solution. • Step 2) The simulated gastric medium was prepared with hydrochloric acid (0.2 N HCl), adjusting the pH to 1.2. • Step 3) The buffered solution obtained in step 1) was mixed with 50 ml of simulated gastric medium, in order to obtain a final solution of 100 ml with 0.1 N HCL. • Step 4) Semaglutide was added to the solution obtained in step 3), in is order to obtain a final concentration of semaglutide of 0.05 mg/ml. • Step 5) Pepsin was added to the solution obtained in step 4) at a final concentration of 3.2 mg/ml or without addition of pepsin (without pepsin), and the solution obtained was kept under constant stirring at 37° C. for 2 hours.
(§4) The semaglutide assay was performed by ultra-high performance liquid chromatography (UHPLC) coupled to an ultraviolet (UV) detector using an external standard calibration. The residual semaglutide content was calculated by measuring the semaglutide content at time t relative to the initial semaglutide content. The result is a ratio expressed in percent (%). The residual content of semaglutide corresponds to the protection percentage of semaglutide.

[3] = Stability of semaglutide compared to Rybelsus in simulated gastric medium pH 1.2 without pepsin (Example 4, HPLC); conditions: for Residual semaglutide content in percent (%): buffered solution, simulated gastric medium pH 1.2 without pepsin, 0.05 mg/mL of semaglutide, 37° C.
Procedure: as §1, §2
The semaglutide content was specifically assayed by high performance liquid chromatography (HPLC). The residual content was calculated by measuring the semaglutide content at time t relative to the initial semaglutide content. The result is a ratio expressed in percent (%). The residual content of semaglutide corresponds to the percentage of protection of the semaglutide.

pepsin [4] = molecular target: T1, pepsin; experiment: Protection of semaglutide under gastric conditions reproduced in vitro, with pepsin (Example 2, UHPLC-UV); conditions: for Semaglutide residual content (%): simulated gastric medium at pH 1.2 with pepsin (3.2 mg/ml), 0.05 mg/ml semaglutide, 37° C.
Procedure: as §3, §4

T1 sequence (P00791 60-385): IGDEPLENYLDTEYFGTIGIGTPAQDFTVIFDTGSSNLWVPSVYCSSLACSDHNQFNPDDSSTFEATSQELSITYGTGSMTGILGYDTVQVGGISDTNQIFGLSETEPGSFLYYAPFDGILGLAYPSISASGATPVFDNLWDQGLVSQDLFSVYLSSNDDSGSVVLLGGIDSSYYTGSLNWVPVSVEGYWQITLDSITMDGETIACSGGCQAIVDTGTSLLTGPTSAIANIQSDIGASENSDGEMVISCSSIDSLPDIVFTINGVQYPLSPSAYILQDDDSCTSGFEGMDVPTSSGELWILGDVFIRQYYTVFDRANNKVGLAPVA

CC[C@H](C)[C@H](NC(=O)[C@H](Cc1ccccc1)NC(=O)[C@H](CCC(=O)O)NC(=O)[C@H](CCCCNC(=O)COCCOCCNC(=O)COCCOCCNC(=O)CC[C@H](NC(=O)CCCCCCCCCCCCCCCCC(=O)O)C(=O)O)NC(=O)[C@H](C)NC(=O)[C@H](C)NC(=O)[C@H](CCC(N)=O)NC(=O)CNC(=O)[C@H](CCC(=O)O)NC(=O)[C@H](CC(C)C)NC(=O)[C@H](Cc1ccc(O)cc1)NC(=O)[C@H](CO)NC(=O)[C@H](CO)NC(=O)[C@@H](NC(=O)[C@H](CC(=O)O)NC(=O)[C@H](CO)NC(=O)[C@@H](NC(=O)[C@H](Cc1ccccc1)NC(=O)[C@@H](NC(=O)CNC(=O)[C@H](CCC(=O)O)NC(=O)C(C)(C)NC(=O)[C@@H](N)Cc1cnc[nH]1)[C@@H](C)O)[C@@H](C)O)C(C)C)C(=O)N[C@@H](C)C(=O)N[C@@H](Cc1c[nH]c2ccccc12)C(=O)N[C@@H](CC(C)C)C(=O)N[C@H](C(=O)N[C@@H](CCCNC(=N)N)C(=O)NCC(=O)N[C@@H](CCCNC(=N)N)C(=O)NCC(=O)O)C(C)C [semaglutide]
Residual semaglutide content in percent (%) (pepsin [1]): 105.2% | degradation of semaglutide (in words) ([2]; formulated with a buffer system, after 2 hours, without pepsin): not degraded | Semaglutide residual content (%) ([2]; with the buffered solution (Example 1A tablet), T 0 h): 103.5% | Semaglutide residual content (%) ([2]; with the buffered solution (Example 1A tablet), T 2 h): 104.1% | Semaglutide residual content (%) ([2]; without buffer system, T 0 h): 100% | Residual semaglutide content in percent (%) ([3]; T = 1 h): 103.5% | Residual semaglutide content in percent (%) ([3]; T = 2 h): 104.1% | stability of semaglutide (in words) ([3]; in the absence of pepsin, in the presence of the buffer system): stable | residual content (pepsin [4]; acid medium with pepsin and without a buffer system, time not given): 0% | Semaglutide residual content (%) (pepsin [4]; with the buffered solution (Example 1A tablet)): 104.6% | Semaglutide residual content (%) (pepsin [4]; without buffer system): 0%
